“Also recorded” adds a separate entry of the source. Read-outs that look alike come from different tables or passages of the source.
Assays:
[1] = Plasma concentrations in experimental Scn1a+/- mice after hyperthermia protocol; assay type: in vivo, mouse
Method: (§1) The plasma and brain samples were prepared for LC-MS/MS analysis as previously described (Anderson et al. [2019b], [2020]). Briefly, acetonitrile was used to precipitate proteins and extract CBGA methyl ester and olivetolic acid from the biological matrices. The brain samples were additionally filtered through Amicon Ultracel 3K (Merck-Millipore; Burlington, USA) filtration devices. The plasma and brain samples underwent supported-liquid extraction with methyl tert-butyl ether using Biotage Isolute SLE+ columns (Uppsala, SWE) and were then evaporated to dryness with N2. Residues were reconstituted in actetonitrile and 0.1% formic acid in water (1:1, v/v) for analysis using a Shimadzu Nexera ultra-HPLC coupled to a Shimadzu 8030 triple quadrupole mass spectrometer (Shimadzu Corp.; Kyoto, JPN). The mass spectrometer was operated in positive electrospray ionization mode for CBGA methyl ester and negative electrospray ionization mode for olivetolic acid with multiple reaction monitoring and the following mass transition pairs (m/z): 375.20 > 343.25, 375.20 > 219.10 and 375.20 > 251.15 (CBGA-methylester) and 223.25 > 179.25 (olivetolic acid). Quantification of analytes in the plasma and brain samples was achieved by comparing samples to standards prepared with known amounts of compound.
Hyperthermia-induced seizure experiments were conducted on male and female Scn1a^+/- mice at P14-16 as previously described (Hawkins et al. [2017]). No significant sex differences were observed so males and females were combined across groups. Briefly, for CBGA methyl ester experimental animals a RET-3 rectal temperature probe was inserted 30 min after i.p. injections of vehicle or CBGA methyl ester. Mice acclimated to the probe for 5 min before hyperthermia protocol began. Olivetolic acid experimental animals acclimated to the rectal temperature probe for 5 min then received an i.p. injection of vehicle or olivetolic acid immediately before the hyperthermia protocol was initiated. Mouse core body temperature was elevated 0.5°C every 2 min until the onset of first clonic convulsion with loss of posture or until 42.5°C was reached. The dose range (10, 30, or 100 mg/kg) was chosen to provide a point of direct comparison to CBGA, which is anticonvulsant at 30 and 100 mg/kg. Seizure threshold temperatures were compared in GraphPad Prism 8.2 (LaJolla, USA) using Mantel-Cox logrank test and p < 0.05 was considered statistically significant. Following the hyperthermia-induced seizure protocol, the plasma samples were isolated as described for the pharmacokinetic analysis from a cohort of experimental mice.

[2] = target: T1, CaV3.1 (Homo sapiens, UniProt O43497); assay: Measurement of intracellular calcium, CaV3.1; assay type: cell-based; details: 10 μM; HEK293 cells expressing human CaV3.1
T1 construct: expressed in transfected cells; host or cells: Flp-In T-REx HEK (tetracycline-induced)
Method: (§2) Changes in intracellular calcium concentrations were measured in Flp-In™ T-REx™ HEK stably expressing either CaV3.1, CaV3.2, or CaV3.3 using Calcium 5 dye (Molecular Devices; Sunnyvale, USA) as previously described (Bladen et al. [2021]). Briefly, cells (120,000/well) were plated into a black, clear-bottomed poly-D-lysine coated, 96-well plate in the presence of 2 μg/mL tetracycline to induce channel expression and incubated overnight at 37°C in ambient CO2. Calcium 5 dye was diluted in HEPES-buffered low potassium Hanks Balanced Salt Solution (HBSS) at 50% of manufacturer’s recommendation. Dye solution containing probenecid (2.5 mM) was added and incubated for 60 min at 37°C in ambient CO2. Compounds were prepared as stock solutions in DMSO and diluted in HBSS with 0.01% bovine serum albumin. Compounds were applied for 5 min, then 10 mM CaCl2 was added. A FlexStation 3 Microplate reader (Molecular Devices; San Jose, USA) was used to take fluorescence readings every 2 s (excitation 485 nm, emission 525 nm). Baseline recordings were taken as the average fluorescence over 20 s preceding CaCl2 addition. Changes in fluorescence were measured as the maximal increase in fluorescence from baseline following CaCl2 addition and normalized to the response of vehicle. CaCl2 addition produced no effect in non-induced cells (Supplemental Fig. 2). Final drug concentrations had ≤ 0.1% DMSO. […]

[3] = target: T2, CaV3.2 (Homo sapiens, UniProt O95180); assay: Measurement of intracellular calcium, CaV3.2; assay type: cell-based; details: 10 μM; HEK293 cells expressing human CaV3.2
T2 construct: expressed in transfected cells; host or cells: Flp-In T-REx HEK (tetracycline-induced)
Method: as §2, with “vehicle.” for “vehicle. CaCl2 addition produced no effect in non-induced cells (Supplemental Fig. 2). Final drug concentrations had ≤ 0.1% DMSO.”

[4] = target: T3, CaV3.3 (Homo sapiens, UniProt Q9P0X4); assay: Measurement of intracellular calcium, CaV3.3; assay type: cell-based; details: 10 μM; HEK293 cells expressing human CaV3.3
T3 construct: expressed in transfected cells; host or cells: Flp-In T-REx HEK (tetracycline-induced)
Method: as §2

[5] = Pharmacokinetic analysis in mouse plasma and brain after i.p. injection; assay type: in vivo; details: for Kp: brain/plasma; for Kp / Cmax / AUC / Tmax / half-life: 10 mg/kg, mouse; for Kp / Cmax: i.p.
Method: Wildtype mice (postnatal day 21-28, P21-28) received an i.p. injection of 10 mg/kg CBGA methyl ester or olivetolic acid. At selected time points (15–120 min) mice were anesthetized with isoflurane, whole blood was collected by cardiac puncture and brains were harvested. The plasma was isolated by centrifugation and samples were stored at −80°C until assayed. Concentrations in the plasma and brain samples at each time point were averaged, and pharmacokinetic parameters were calculated by noncompartmental analysis as previously described (Hawkins et al. [2017]).
as §1

[6] = intraperitoneal, read-out: brain penetration
[7] = ip, from AUC values, read-out: Brain-plasma ratio
[8] = ip, brain, converted from ng/mg brain assuming density of 1 g/mL, read-out: Cmax

T1 sequence (O43497 whole entry): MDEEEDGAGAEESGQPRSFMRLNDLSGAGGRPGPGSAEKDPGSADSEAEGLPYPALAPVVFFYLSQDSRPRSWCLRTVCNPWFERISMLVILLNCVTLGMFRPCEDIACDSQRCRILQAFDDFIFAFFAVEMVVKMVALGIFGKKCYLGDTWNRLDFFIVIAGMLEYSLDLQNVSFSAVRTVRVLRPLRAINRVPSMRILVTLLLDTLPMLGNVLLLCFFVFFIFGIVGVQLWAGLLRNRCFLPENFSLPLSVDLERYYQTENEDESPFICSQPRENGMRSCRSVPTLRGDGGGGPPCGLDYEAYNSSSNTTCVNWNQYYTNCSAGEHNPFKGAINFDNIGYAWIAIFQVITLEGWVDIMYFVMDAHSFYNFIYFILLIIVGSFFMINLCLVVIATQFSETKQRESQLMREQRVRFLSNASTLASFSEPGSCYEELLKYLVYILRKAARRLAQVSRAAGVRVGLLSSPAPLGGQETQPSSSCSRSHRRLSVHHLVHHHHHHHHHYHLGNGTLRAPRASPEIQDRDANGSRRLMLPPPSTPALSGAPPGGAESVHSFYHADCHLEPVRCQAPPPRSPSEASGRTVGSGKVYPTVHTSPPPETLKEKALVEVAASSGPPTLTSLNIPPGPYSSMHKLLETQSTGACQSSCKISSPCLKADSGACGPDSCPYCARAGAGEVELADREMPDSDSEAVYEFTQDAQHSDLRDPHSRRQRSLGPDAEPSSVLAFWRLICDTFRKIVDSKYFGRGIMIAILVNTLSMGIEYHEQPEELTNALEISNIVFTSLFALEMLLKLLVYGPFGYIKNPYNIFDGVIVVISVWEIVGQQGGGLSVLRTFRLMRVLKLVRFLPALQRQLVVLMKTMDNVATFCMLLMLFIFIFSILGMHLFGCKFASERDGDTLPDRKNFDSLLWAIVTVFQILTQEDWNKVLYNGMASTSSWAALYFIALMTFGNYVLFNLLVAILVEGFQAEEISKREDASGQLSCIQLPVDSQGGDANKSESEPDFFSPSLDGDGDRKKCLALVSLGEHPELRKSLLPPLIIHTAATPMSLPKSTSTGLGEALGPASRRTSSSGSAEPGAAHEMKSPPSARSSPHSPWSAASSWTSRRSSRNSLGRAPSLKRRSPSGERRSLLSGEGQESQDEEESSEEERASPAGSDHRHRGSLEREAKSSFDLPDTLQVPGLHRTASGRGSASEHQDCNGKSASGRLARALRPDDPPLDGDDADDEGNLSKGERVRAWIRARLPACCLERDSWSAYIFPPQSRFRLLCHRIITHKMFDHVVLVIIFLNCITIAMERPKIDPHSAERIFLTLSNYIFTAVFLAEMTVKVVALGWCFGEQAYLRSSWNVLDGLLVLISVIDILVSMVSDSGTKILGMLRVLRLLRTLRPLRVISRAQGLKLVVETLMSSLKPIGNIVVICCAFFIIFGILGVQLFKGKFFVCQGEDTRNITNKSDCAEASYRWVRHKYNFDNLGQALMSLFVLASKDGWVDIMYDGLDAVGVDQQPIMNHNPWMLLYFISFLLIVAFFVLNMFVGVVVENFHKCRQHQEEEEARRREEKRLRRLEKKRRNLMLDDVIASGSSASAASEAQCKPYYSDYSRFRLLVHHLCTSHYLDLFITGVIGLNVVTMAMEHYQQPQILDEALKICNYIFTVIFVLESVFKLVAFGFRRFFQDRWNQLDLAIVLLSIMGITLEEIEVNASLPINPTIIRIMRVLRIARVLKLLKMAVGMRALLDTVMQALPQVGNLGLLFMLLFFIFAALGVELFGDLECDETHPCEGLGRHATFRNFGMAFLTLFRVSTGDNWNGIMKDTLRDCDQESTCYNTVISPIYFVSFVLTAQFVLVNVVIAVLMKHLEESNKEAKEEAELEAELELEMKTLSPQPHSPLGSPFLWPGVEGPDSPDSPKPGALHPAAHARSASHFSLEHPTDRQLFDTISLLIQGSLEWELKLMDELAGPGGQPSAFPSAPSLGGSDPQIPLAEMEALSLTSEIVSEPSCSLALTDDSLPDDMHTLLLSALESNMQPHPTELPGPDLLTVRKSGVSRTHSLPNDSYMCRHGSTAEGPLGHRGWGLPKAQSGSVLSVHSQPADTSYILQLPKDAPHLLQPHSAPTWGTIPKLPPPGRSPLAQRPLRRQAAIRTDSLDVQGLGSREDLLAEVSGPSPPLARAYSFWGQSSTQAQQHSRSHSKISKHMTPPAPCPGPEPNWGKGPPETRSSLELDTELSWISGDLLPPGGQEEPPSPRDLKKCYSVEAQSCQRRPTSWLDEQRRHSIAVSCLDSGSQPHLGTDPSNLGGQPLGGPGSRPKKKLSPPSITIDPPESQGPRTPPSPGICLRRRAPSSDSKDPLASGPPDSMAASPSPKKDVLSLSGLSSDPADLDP
T3 sequence (Q9P0X4 whole entry): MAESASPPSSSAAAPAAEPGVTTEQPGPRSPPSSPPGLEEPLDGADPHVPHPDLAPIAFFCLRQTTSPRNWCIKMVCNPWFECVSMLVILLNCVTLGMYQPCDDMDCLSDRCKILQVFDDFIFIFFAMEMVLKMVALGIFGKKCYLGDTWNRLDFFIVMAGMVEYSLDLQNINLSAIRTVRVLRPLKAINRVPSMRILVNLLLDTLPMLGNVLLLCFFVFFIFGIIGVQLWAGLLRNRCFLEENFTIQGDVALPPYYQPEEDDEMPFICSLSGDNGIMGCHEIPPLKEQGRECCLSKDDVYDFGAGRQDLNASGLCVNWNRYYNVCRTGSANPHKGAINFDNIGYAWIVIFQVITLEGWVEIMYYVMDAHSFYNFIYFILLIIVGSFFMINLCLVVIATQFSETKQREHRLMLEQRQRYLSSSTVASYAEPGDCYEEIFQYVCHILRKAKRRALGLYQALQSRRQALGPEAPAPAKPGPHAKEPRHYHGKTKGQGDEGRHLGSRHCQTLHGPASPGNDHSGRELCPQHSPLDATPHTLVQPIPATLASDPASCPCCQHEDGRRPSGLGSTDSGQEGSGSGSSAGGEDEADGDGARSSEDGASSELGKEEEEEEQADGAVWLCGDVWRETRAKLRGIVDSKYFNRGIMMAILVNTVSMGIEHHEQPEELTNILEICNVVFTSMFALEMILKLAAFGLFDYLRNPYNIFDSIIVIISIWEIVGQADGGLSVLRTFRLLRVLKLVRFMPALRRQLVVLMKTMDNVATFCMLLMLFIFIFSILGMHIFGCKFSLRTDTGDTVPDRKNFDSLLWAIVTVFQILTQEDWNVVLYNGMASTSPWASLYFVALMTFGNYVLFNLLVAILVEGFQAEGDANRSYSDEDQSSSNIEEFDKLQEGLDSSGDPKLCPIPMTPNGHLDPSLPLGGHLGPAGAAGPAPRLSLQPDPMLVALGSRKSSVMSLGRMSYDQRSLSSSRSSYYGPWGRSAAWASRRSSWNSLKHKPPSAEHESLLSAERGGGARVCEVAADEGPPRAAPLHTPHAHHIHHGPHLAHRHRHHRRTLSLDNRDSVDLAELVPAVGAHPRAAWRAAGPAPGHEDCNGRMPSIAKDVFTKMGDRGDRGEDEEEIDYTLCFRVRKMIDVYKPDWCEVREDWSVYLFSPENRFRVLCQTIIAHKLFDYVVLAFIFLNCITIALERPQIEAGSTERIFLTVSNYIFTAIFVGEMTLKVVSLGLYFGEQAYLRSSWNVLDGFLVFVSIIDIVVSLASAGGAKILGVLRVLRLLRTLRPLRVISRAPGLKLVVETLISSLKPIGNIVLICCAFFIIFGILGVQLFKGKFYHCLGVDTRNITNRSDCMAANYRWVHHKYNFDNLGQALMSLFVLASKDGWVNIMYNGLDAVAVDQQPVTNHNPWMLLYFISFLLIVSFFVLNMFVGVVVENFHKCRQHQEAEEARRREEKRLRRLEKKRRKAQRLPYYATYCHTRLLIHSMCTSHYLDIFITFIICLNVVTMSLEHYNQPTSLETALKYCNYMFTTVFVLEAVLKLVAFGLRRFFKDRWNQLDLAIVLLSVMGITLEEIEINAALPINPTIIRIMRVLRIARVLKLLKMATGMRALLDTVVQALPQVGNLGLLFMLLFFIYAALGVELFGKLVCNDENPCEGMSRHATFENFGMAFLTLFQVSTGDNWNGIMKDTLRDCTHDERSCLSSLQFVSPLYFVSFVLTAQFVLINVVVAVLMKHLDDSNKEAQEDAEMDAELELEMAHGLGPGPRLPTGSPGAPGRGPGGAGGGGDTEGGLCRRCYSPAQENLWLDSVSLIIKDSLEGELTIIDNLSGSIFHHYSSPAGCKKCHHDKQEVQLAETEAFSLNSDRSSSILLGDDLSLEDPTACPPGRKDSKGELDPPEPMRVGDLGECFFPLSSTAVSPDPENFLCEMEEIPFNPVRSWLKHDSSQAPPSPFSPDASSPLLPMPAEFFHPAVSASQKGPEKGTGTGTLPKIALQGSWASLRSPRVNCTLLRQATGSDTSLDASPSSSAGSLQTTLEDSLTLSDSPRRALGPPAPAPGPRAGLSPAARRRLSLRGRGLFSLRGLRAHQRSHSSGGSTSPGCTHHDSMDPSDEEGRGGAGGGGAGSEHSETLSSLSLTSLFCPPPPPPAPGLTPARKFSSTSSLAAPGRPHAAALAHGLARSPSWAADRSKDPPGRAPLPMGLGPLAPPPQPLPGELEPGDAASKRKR

Compound `CCCCCc1cc(O)cc(O)c1C(=O)O` [Olivetolic acid] has a Plasma concentration ([1]; dose 10 mg/kg i.p.) of 65000 ± 5000 ng/mL, a Plasma concentration ([1]; dose 30 mg/kg i.p.) of 89000 ± 12000 ng/mL and a Plasma concentration ([1]; dose 100 mg/kg i.p.) of 116000 ± 27000 ng/mL. The “inhibition of CaV3.1 (change in intracellular calcium relative to vehicle)” value [2] was “Neither CBGA methyl ester nor olivetolic acid had any effect; also recorded: ineffective”, the “inhibition of CaV3.2 (change in intracellular calcium relative to vehicle)” value [3] was “Neither CBGA methyl ester nor olivetolic acid had any effect; also recorded: ineffective” and the “inhibition of CaV3.3 (change in intracellular calcium relative to vehicle)” value [4] was “Neither CBGA methyl ester nor olivetolic acid had any effect; also recorded: ineffective”. It also gave a Kp [5, 6] of 0.01, a Kp [5, 7] of 0.01 and a Cmax ([5]; brain) of 0.45 ± 0.06 ng/mg brain. It also gave a Cmax [5, 8] of 450 ± 60 ng/mL, an AUC ([5]; ip, brain) of 217 ng·h/mL and a Tmax ([5]; ip, brain) of 15 min. The Cmax ([5]; ip, plasma, read-out: Cmax) was 65000 ± 4000 ng/mL, the AUC ([5]; ip, plasma) was 18400 ng·h/mL and the Tmax ([5]; ip, plasma) was 15 min. It also gave a half-life ([5]; brain, ip) of less than 15 min and a half-life ([5]; plasma, ip) of less than 15 min.

Work on `CCCCCc1cc(O)c(C/C=C(\C)CCC=C(C)C)c(O)c1C(=O)OC` [CBGA methyl ester] yielded a Plasma concentration ([1]; dose 10 mg/kg i.p.) of 837 ± 212 ng/mL, a Plasma concentration ([1]; dose 30 mg/kg i.p.) of 4700 ± 600 ng/mL and a Plasma concentration ([1]; dose 100 mg/kg i.p.) of 6200 ± 600 ng/mL. For the same compound, the “inhibition of CaV3.1 (change in intracellular calcium relative to vehicle)” value [2] was “Neither CBGA methyl ester nor olivetolic acid had any effect; also recorded: no effect”, the “inhibition of CaV3.2 (change in intracellular calcium relative to vehicle)” value [3] was “Neither CBGA methyl ester nor olivetolic acid had any effect; also recorded: no effect” and the “inhibition of CaV3.3 (change in intracellular calcium relative to vehicle)” value [4] was “Neither CBGA methyl ester nor olivetolic acid had any effect; also recorded: no effect”. For the same compound, the Kp [5, 6] was 0.13, the Kp [5, 7] was 0.13 and the “improvement of brain-plasma ratio over CBGA” value ([5]; compared with CBGA of Anderson et al. 2019b) was “nearly a seven fold improvement”. For the same compound, the Cmax [5, 8] was 210 ± 30 ng/mL, the AUC ([5]; ip, brain) was 367 ng·h/mL and the Tmax ([5]; ip, brain) was 30 min. For the same compound, the Cmax ([5]; ip, plasma, read-out: Cmax) was 1300 ± 300 ng/mL, the AUC ([5]; ip, plasma) was 2850 ng·h/mL and the Tmax ([5]; ip, plasma) was 45 min. For the same compound, the half-life ([5]; brain, ip) was 62 min and the half-life ([5]; plasma, ip) was 81 min.
